Source: PMC12284850, “In Silico Design of Antimicrobial Peptides against Carbapenem-Resistant Infections with Enhanced Activity by Nanoformulation” (ACS Applied Bio Materials, 2025)
In brackets after ≈: the same amount, converted by molar mass. Where a SMILES comes first, the peptide text is derived from it.

Columns and labels:
[1] = system: E. coil ATCC25922; format: cell-based, E. coli
Experimental: (§1) The broth microdilution procedure involves preparing CAMHB broth, a bacterial suspension adjusted to McFarland 0.5 (1.5 × 10^8 CFU/mL) and diluted 200×, and a drug solution at 2× the final target concentration. To achieve a 400× final bacterial dilution, add 100 μL of the drug at different doses to a 96-well plate, then 100 μL of the diluted bacterial culture. Measure the initial absorbance (0 h), incubate at 37 °C for 16–18 h, and measure the final absorbance. With no change in absorbance, the MIC signifies the absence of bacterial growth.

[2] = system: A. baumannii ATCC BAA-747; format: cell-based
Experimental: as §1

[3] = system: A. baumannii ATCC19606; format: cell-based
Experimental: as §1

[4] = system: E. faecalis ATCC 29212; format: cell-based
Experimental: as §1

[5] = system: K. pneumoniae ATCC BAA-1705; format: cell-based
Experimental: as §1

[6] = system: K. pneumoniae ATCCC700603; format: cell-based
Experimental: as §1

[7] = system: P. aeruginosa ATCC27853; format: cell-based
Experimental: as §1

[8] = system: S. aureus ATCC25923; format: cell-based
Experimental: as §1

[9] = system: S. aureus ATCC29213; format: cell-based
Experimental: as §1

[10] = system: S. aureus ATCC33592; format: cell-based
Experimental: as §1

[11] = system: S. aureus ATCC700698; format: cell-based
Experimental: as §1

[12] = system: CRAB isolate AB-01; format: cell-based, A. baumannii
Description: (§2) The blood samples of patients from Kaohsiung Medical University were used to collect and cryopreserve all of the CRAB clinical isolates. Analytical graded chemicals and reagents were utilized throughout the investigation. The T2–02 peptide (MW 2646.27 Da) was custom-synthesized by Kelowna International Scientific Inc., 1,2-[…]-sn-glycero-3-phosphoethanolamine-N-[methoxy(polyethylene glycol)-2000] (ammonium salt) (DSPE-PEG2000, MW 2693.285 Da) was purchased from Laysan Bio Inc., 1,2-Dioleoyl-sn-glycero-3-phosphocholine (DOPC, MW 786.1 Da) was acquired from BroadPharm, and Poly-L-lysine hydrobromide (30–70 kDa) was sourced from Sigma-Aldrich.
as §1

[13] = system: CRAB isolate AB-02; format: cell-based, A. baumannii
Description: as §2, §1

[14] = system: CRAB isolate AB-03; format: cell-based, A. baumannii
Description: as §2, §1

[15] = system: CRAB isolate AB-04; format: cell-based, A. baumannii
Description: as §2, §1

[16] = system: CRAB isolate AB-05; format: cell-based, A. baumannii
Description: as §2, §1

[17] = system: CRAB isolate AB-06; format: cell-based, A. baumannii
Description: as §2, §1

[18] = system: CRAB isolate AB-07; format: cell-based, A. baumannii
Description: as §2, §1

[19] = system: CRAB isolate AB-08; format: cell-based, A. baumannii
Description: as §2, §1

[20] = system: CRAB isolate AB-09; format: cell-based, A. baumannii
Description: as §2, §1

[21] = system: CRAB isolate AB-10; format: cell-based, A. baumannii
Description: as §2, §1

[22] = system: CRAB isolate AB-11; format: cell-based, A. baumannii
Description: as §2, §1

[23] = system: CRAB isolate AB-12; format: cell-based, A. baumannii
Description: as §2, §1

[24] = system: CRAB isolate AB-13; format: cell-based, A. baumannii
Description: as §2, §1

[25] = system: CRAB isolate AB-14; format: cell-based, A. baumannii
Description: as §2, §1

[26] = system: CRAB isolate AB-15; format: cell-based, A. baumannii
Description: as §2, §1

[27] = system: CRAB isolate AB-16; format: cell-based, A. baumannii
Description: as §2, §1

[28] = system: CRAB isolate AB-17; format: cell-based, A. baumannii
Description: as §2, §1

[29] = system: CRAB isolate AB-18; format: cell-based, A. baumannii
Description: as §2, §1

[30] = system: CRAB isolate AB-19; format: cell-based, A. baumannii
Description: as §2, §1

[31] = system: CRAB isolate AB-20; format: cell-based, A. baumannii
Description: as §2, §1

[32] = system: CRAB isolate AB-21; format: cell-based, A. baumannii
Description: as §2, §1

[33] = system: CRAB isolate AB-22; format: cell-based, A. baumannii
Description: as §2, §1

[34] = system: CRAB isolate AB-23; format: cell-based, A. baumannii
Description: as §2, §1

[35] = system: CRAB isolate AB-24; format: cell-based, A. baumannii
Description: as §2, §1

[36] = system: Gram-positive bacteria; assay: MIC against Gram-positive bacteria; format: cell-based; conditions: broth microdilution
Experimental: as §1

[37] = system: HK-2 cells; assay: Cytotoxicity assay (MTT); format: cell-based
Experimental: (§3) We tested the cytotoxicity of several antibiotic compounds, including peptides and nanoparticles, on the human embryonic kidney cell lines HEK-293, HK-2, and […]. The cells were stored in DMEM medium and incubated at 37 °C with 5% CO2 in a humidifying environment. Using the MTT (methylthiazolyldiphenyl-tetrazolium bromide) test, cell viability was evaluated. Following a 5 × 10^3 cell/mL seeding in 96-well plates, the cells were exposed to 100 μL of samples at varying concentrations (12.5–200 μM) during 72 h at 37 °C. Later, each well is loaded with MTT solution (5 mg/mL in PBS) at a volume of 10 μL. The plates were left in the dark for 4 h. After forming formazan crystals due to the action of mitochondrial reductases in living cells, the crystals were dissolved using a solubilizing solution (pH 4.7, 40% dimethylformamide, 2% glacial acetic acid, and 16% sodium dodecyl sulfate) were shaken at 150 rpm and incubated for an hour at 37 °C. Using graphical plot analysis, the IC50 value–the concentration that results in 50% cell death–was obtained by measuring the absorbance of the dissolved formazan at 570 nm. The average of three independent tests, each carried out in triplicate, was used to display the results.

[38] = system: HEK293; format: cell-based, human; conditions: 72 h
Experimental: as §3

[39] = system: THP-1; format: cell-based; conditions: 72 h

With CC[C@H](C)[C@H](NC(=O)[C@H](CCCCN)NC(=O)CNC(=O)[C@H](CCCNC(=N)N)NC(=O)[C@H](CCCNC(=N)N)NC(=O)[C@H](CCCCN)NC(=O)[C@H](CC(C)C)NC(=O)[C@H](CC(C)C)NC(=O)[C@H](CCCNC(=N)N)NC(=O)[C@H](CCCCN)NC(=O)[C@H](Cc1c[nH]c2ccccc12)NC(=O)[C@H](CC(C)C)NC(=O)[C@H](C)N)C(=O)N[C@H](C(=O)N[C@@H](CC(C)C)C(=O)N[C@@H](CC(N)=O)C(=O)N[C@@H](CCC(=O)O)C(=O)N[C@@H](CCCNC(=N)N)C(=O)N[C@@H](CC(C)C)C(=O)N[C@@H](CCCNC(=N)N)C(=O)N[C@@H](CC(C)C)C(=O)O)[C@@H](C)CC [T2–02] (H-ALWKRLLKRRGKIILNERLRL-OH) the MIC [1] was 64 mg/L (≈ 24.2 µM), the MIC [2] was 8 mg/L (≈ 3.02 µM) and the MIC [3] was 8 mg/L (≈ 3.02 µM). It also gave an MIC [4] of 64 mg/L (≈ 24.2 µM), an MIC [5] of 512 mg/L (≈ 193 µM) and an MIC [6] of 128 mg/L (≈ 48.4 µM). It also gave an MIC [7] of 8 mg/L (≈ 3.02 µM), an MIC [8] of 256 mg/L (≈ 96.7 µM) and an MIC [9] of 64 mg/L (≈ 24.2 µM). It also gave an MIC [10] of 256 mg/L (≈ 96.7 µM), an MIC [11] of 256 mg/L (≈ 96.7 µM) and an MIC [12] of 8 mg/L (≈ 3.02 µM). The MIC [13] was 8 mg/L (≈ 3.02 µM), the MIC [14] was 4 mg/L (≈ 1.51 µM) and the MIC [15] was 8 mg/L (≈ 3.02 µM). The MIC [16] was 8 mg/L (≈ 3.02 µM), the MIC [17] was 8 mg/L (≈ 3.02 µM) and the MIC [18] was 8 mg/L (≈ 3.02 µM). It also gave an MIC [19] of 8 mg/L (≈ 3.02 µM), an MIC [20] of 8 mg/L (≈ 3.02 µM) and an MIC [21] of 8 mg/L (≈ 3.02 µM). For the same molecule, the MIC [22] was 8 mg/L (≈ 3.02 µM), the MIC [23] was 16 mg/L (≈ 6.05 µM) and the MIC [24] was 4 mg/L (≈ 1.51 µM). It also gave an MIC [25] of 8 mg/L (≈ 3.02 µM), an MIC [26] of 8 mg/L (≈ 3.02 µM) and an MIC [27] of 16 mg/L (≈ 6.05 µM). For the same molecule, the MIC [28] was 8 mg/L (≈ 3.02 µM), the MIC [29] was 16 mg/L (≈ 6.05 µM) and the MIC [30] was 8 mg/L (≈ 3.02 µM). It also gave an MIC [31] of 8 mg/L (≈ 3.02 µM), an MIC [32] of 8 mg/L (≈ 3.02 µM) and an MIC [33] of 8 mg/L (≈ 3.02 µM). For the same molecule, the MIC [34] was 8 mg/L (≈ 3.02 µM), the MIC [35] was 8 mg/L (≈ 3.02 µM) and the “MIC against Gram-positive bacteria (range)” value [36] was 64 to 256 mg/L. The “Cytotoxicity HK-2 related to PMB” value [37] was 30.9, the “IC50 HK-2” value ([37]; concentration causing 50% cell death, MTT, 72 h, 37 °C, average of three independent tests in triplicate) was 557 mg/L (≈ 210 µM) and the “IC50 HEK293” value [38] was 1101 mg/L (≈ 416 µM). For the same molecule, the “IC50 THP-1” value [39] was 866 mg/L (≈ 327 µM).
